{"source": "patent US20230263817A1", "about": "“HIGH DOSE NICOTINAMIDE ADENINE DINUCLEOTIDE (NAD) PRECURSOR REGIMENS FOR REDUCTION OF INFLAMMATION IN HUMAN PATIENTS WITH PREEXISTING INFLAMMATION” (University of Washington, priority 2021, published 2023)", "assay_type_in_all_cases": "in vivo, human", "key": {"[1]": {"assay": "Adverse effects of oral NR in Stage D HF patients", "conditions": "oral NR 5-9 days, 5 participants", "description": "(§1) For experiments associated with the oral NR administration (FIGS. 12C-12F), 5 hospitalized Stage D HF patients undergoing advanced heart failure therapy evaluations were put on escalating doses of NR (250 mg twice a day for Day 1, 500 mg twice a day for Day 2, and 1000 mg twice a day from Day 3 on) for 5-9 days. Fasting blood samples were obtained for PBMC isolation at baseline and post-NR administration. Subject 5 was withdrawn due to a change in clinical course deemed to be independent from NR administration."}, "[2]": {"tested_on": "NLRP3 and cytokines mRNA of PBMC of Stage D HF subjects", "assay": "PBMC NLRP3 and cytokine mRNA of Stage D HF patients pre- and post-oral NR", "conditions": "oral NR 5-9 days, post vs pre", "description": "as §1\nRNA Isolation and Quantitative PCR analysis. Total RNA was isolated from frozen PBMC pellets using Trizol (Invitrogen) per the manufacturer's instructions, and cDNA was synthesized using iScript™ Reverse Transcription Supermix (Bio-rad) per the manufacturer's instructions. Real-time PCR was performed in the Corbett rotor gene 6000 real-time PCR machine using iQ™ SYBR® Green Supermix (Bio-rad) and expression levels of the indicated genes were calculated using the ΔΔCt method."}, "[3]": {"tested_on": "peripheral blood mononuclear cells (PBMCs)", "assay": "Randomized trial of NR in HFrEF: PBMC mitochondrial respiration", "conditions": "Week 12 vs Week 0, NR group", "description": "Peripheral Blood Mononuclear Cell (PBMC) Mitochondrial Function. PBMCs were isolated from freshly-collected whole blood by centrifugation in Sepmate™-50 PBMC isolation tubes (STEMCELL Technologies, Vancouver, BC, Canada; Cat. 85450). Isolated PBMCs were resuspended in Seahorse XF® medium (Agilent, Cat. 102353-100) and then plated (10^6 cells/well) onto Seahorse® (Agilent) 24-well plates. PBMC mitochondrial respiratory function was assessed by measuring the oxygen consumption rate (OCR) at baseline and maximal stimulated conditions as described in Zhou B, et al. (J Clin Invest. 2020, 130:6054-6063 (Experimental Example 1)). Exploratory Endpoints. The following endpoints were considered exploratory, as the Study was underpowered to detect differences."}, "[4]": {"assay": "Whole blood NAD+ in Stage D HF patients on oral NR for 5-9 days", "conditions": "oral NR up to 1000 mg twice a day, post vs pre", "description": "as §1\nWhole bloodNAD^+ assays. These were performed as previously described (Airhart S E, et al., PLoS One. 2017, 12(12):e0186459). Briefly, 50 μL of thawed blood samples were added to tubes containing 1 μg BMP as the internal standard and immediately followed by 300 μL of 4% trichloroacetic acid to precipitate proteins. Calibration standards were similarly prepared except that the matrix was 30 mg/mL BSA spiked with NAD^+ and NMN that had been dissolved in methanol. After protein precipitation and high-speed centrifugation, the supernatants were loaded onto Costar Spin-X 0.22 μm spin filters and subject to high speed centrifugation again. The eluates were injected onto an Agilent 1100 series high performance liquid chromatograph coupled to an Agilent G1956B single-quadrupole mass spectrometer. The mass spectrometer was operated in electrospray ionization mode with positive polarity."}, "[5]": {"tested_on": "PBMC of Stage D HF subjects", "assay": "PBMC basal and maximal OCR of Stage D HF patients pre- and post-oral NR", "conditions": "oral NR 5-9 days, post vs pre", "description": "For experiments associated with the oral NR administration (FIGS. 12C-12F), 5 hospitalized Stage D HF patients undergoing advanced heart failure therapy evaluations were put on escalating doses of NR (250 mg twice a day for Day 1, 500 mg twice a day for Day 2, and 1000 mg twice a day from Day 3 on) for 5-9 days. Fasting blood samples were obtained for PBMC isolation at baseline and post-NR administration. Subject 5 was withdrawn due to a change in clinical course deemed to be independent from NR administration. PBMC and Monocyte isolation. 30-60 ml of fasting blood was collected into EDTA-containing Vacutainers (BD Mfr #364606). Blood then was diluted (1:1) with RPMI medium (Corning; Cat #17-105-CV) and applied to Histopaque gradient medium (Sigma-Aldrich; Cat #10771) using SepMate-50 (STEMCELL Technologies), and centrifuged at 1200 g for 10 minutes. Top layer contained the enriched peripheral blood mononuclear cells (PBMCs) which were collected and followed by centrifugation at 300 g for 10 minutes. The pellet was resuspended with ACK lysis buffer (Gibco; Cat. A1049201) and incubated at room temperature for 5 minutes to remove residual red blood cells. […] When available, the remaining cells were used for cytokine mRNA quantitative PCR and in vitro assays. […] Oxygen consumption rate (OCR) of freshly isolated PBMCs was assessed using a Seahorse XFe24 analyzer (Agilent Technologies). […]"}}}
{"molecule": "NC(=O)c1ccc[n+]([C@@H]2O[C@H](CO)[C@@H](O)[C@H]2O)c1", "note": "[NR, nicotinamide riboside]", "values": [{"measurement": "adverse effect associated with NR", "setting": "[1]", "value": "No adverse effect"}, {"measurement": "reduction of proinflammatory cytokine gene expressions", "setting": "[2]", "value": "up to 30 fold"}, {"measurement": "baseline (basal) PBMC mitochondrial respiration rates", "setting": "[3]", "value": "not changed"}, {"measurement": "maximal PBMC respiration", "setting": "[3]; did not reach statistical significance", "value": "marginal increase"}, {"measurement": "whole blood NAD+ levels", "setting": "[4]", "value": "increases"}, {"measurement": "PBMCs basal OCR", "setting": "[5]", "value": "consistent enhancement"}, {"measurement": "PBMCs maximal OCR", "setting": "[5]", "value": "consistent enhancement"}]}
